Experimental data as given in patent publication US20100022562A1, “Use of Plant Growth Regulators to Reduce Abscisic Acid Related Plant Leaf Yellowing” (priority 2008, published 2010).

Key:
Format in all cases: in vivo
Pansy plants [1] = assay: Pansy yellow leaf number (leaf yellowing)
Experimental: All studies were conducted in the greenhouse at the research farm of Valent BioSciences Corporation (Long Grove, Ill.). Pansy plants were obtained either from local retailers as mature plants, or plugs from wholesale nurseries. Plugs of Pansy plants were transplanted into an 18-cell flat filled with Promix BX (available from Premier Horticulture Inc. Quakertown, Pa.) and grown for about 30 days prior to treatment. During growing periods, plants received daily irrigation and weekly fertilizer (1 g/L all purpose fertilizer 20-20-20, The Scotts Company, Marysville, Ohio).
(§1) Uniform plants were selected for the study. Prior to chemical treatment, plants were saturated with water and then drained for about two hours. A total of 20 mL chemical solution, which is equivalent to about 10% of the cell volume, was applied to each plant with 3 mL solution foliar applied to canopy and 17 mL solution drench applied to root zone. Unless specified, watering of plants was stopped after chemical treatment.
After chemical treatment, plants were arranged in a randomized complete block experimental design. The plants were rated daily for the extent of wilting on a scale from 1 (no wilting) to 4 (complete wilting) to generated a sales index rating. A rating of 2.5 was the point at which a plant was determined to be unmarketable and the previous day was recorded as the shelf life of that plant in days. […] Leaf transpiration rate was measured after treatment using a LI-1600 Steady State Porometer (LI-Cor, Lincoln, Nebr.). The transpiration rate of each treatment was calculated as the percentage of that of control at each day to reduce day-to-day variation caused by changes of environmental condition such as light intensity, humidity, and temperature.

Pansy plants [2] = assay: Pansy shelf life under drought (daily wilting rating, sales index)
Outline: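 Greenhouse pansies were treated with 20 mL solution each, 3 mL foliar plus 17 mL root drench, then watering was withheld. Wilting was rated daily on a 1–4 scale, and shelf life was the day before the rating reached 2.5. Yellow leaves were counted 3 days after treatment.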

Pansy plants [3] = assay: Pansy leaf transpiration rate (LI-1600 Steady State Porometer); conditions: Matrix Premium Rose
Experimental: as §1
After chemical treatment, plants were arranged in a randomized complete block experimental design. The plants were rated daily for the extent of wilting on a scale from 1 (no wilting) to 4 (complete wilting) to generated a sales index rating. A rating of 2.5 was the point at which a plant was determined to be unmarketable and the previous day was recorded as the shelf life of that plant in days. Yellow leaf number was counted at 3 days after chemical treatment. Leaf transpiration rate was measured after treatment using a LI-1600 Steady State Porometer (LI-Cor, Lincoln, Nebr.). The transpiration rate of each treatment was calculated as the percentage of that of control at each day to reduce day-to-day variation caused by changes of environmental condition such as light intensity, humidity, and temperature.

c1ccc(CNc2ncnc3nc[nH]c23)cc1 [BA, 6-benzylaminopurine]
Yellow leaf number (Pansy plants [1]; 0.2 mg BA, Matrix Yellow, 3 d after treatment, Table 5): 1.8 | Yellow leaf number (Pansy plants [1]; 0.2 mg BA, no water, Whispers White, 3 d after treatment, Table 15): 7.8 | Yellow leaf number (Pansy plants [1]; 2 mg BA at 0 d, Matrix Premium Rose, 3 d after treatment, Table 11): 0.8 | Yellow leaf number (Pansy plants [1]; 2 mg BA at +1 d, Matrix Premium Rose, 3 d after treatment, Table 11): 0.8 | Yellow leaf number (Pansy plants [1]; 2 mg BA at −1 d, Matrix Premium Rose, 3 d after treatment, Table 11): 0.7 | Yellow leaf number (Pansy plants [1]; 2 mg BA, Delta Premium Pure White, 3 days after treatment, Table 23): 1.3 | Yellow leaf number (Pansy plants [1]; 2 mg BA, Delta Premium Pure White, 7 days after treatment, Table 23): 6.2 | Yellow leaf number (Pansy plants [1]; 2 mg BA, Matrix Yellow, 3 d after treatment, Table 5): 1.5 | Yellow leaf number (Pansy plants [1]; 2 mg BA, no water, Matrix Premium Rose, 3 d after treatment, Table 13): 0.8 | Yellow leaf number (Pansy plants [1]; 2 mg BA, no water, Whispers White, 3 d after treatment, Table 15): 6.3 | Yellow leaf number (Pansy plants [1]; 2 mg, Clear Sky Yellow, drought, 3 d after treatment, Table 8): 0.0 | Yellow leaf number (Pansy plants [1]; 2 mg, Crown Azure Blue, drought, 3 d after treatment, Table 9): 0.3 | Yellow leaf number (Pansy plants [1]; 2 mg, Matrix Yellow, drought, 3 d after treatment, Table 7): 7.8 | Yellow leaf number (Pansy plants [1]; 2 mg, Matrix Yellow, drought, 3 d after treatment, Table 10): 7.2 | Shelf life (Pansy plants [2]; 0.2 mg BA, Matrix Yellow, Table 5): 3.8 days | Shelf life (Pansy plants [2]; 0.2 mg BA, no water, Whispers White, Table 15): 2.5 days | Shelf life (Pansy plants [2]; 2 mg BA at 0 d, Matrix Premium Rose, Table 11): 3.7 days | Shelf life (Pansy plants [2]; 2 mg BA at +1 d, Matrix Premium Rose, Table 11): 4.0 days | Shelf life (Pansy plants [2]; 2 mg BA at −1 d (1 day prior to ABA treatment day), Matrix Premium Rose, Table 11): 3.8 days | Shelf life (Pansy plants [2]; 2 mg BA, Delta Premium Pure White, Table 23): 4.0 days | Shelf life (Pansy plants [2]; 2 mg BA, Matrix Yellow, Table 5): 3.8 days | Shelf life (Pansy plants [2]; 2 mg BA, no water, Matrix Premium Rose, Table 13): 4.0 days | Shelf life (Pansy plants [2]; 2 mg BA, no water, Whispers White, Table 15): 2.7 days | Shelf life (Pansy plants [2]; 2 mg, Clear Sky Yellow, drought, Table 8): 3.8 days | Shelf life (Pansy plants [2]; 2 mg, Crown Azure Blue, drought, Table 9): 3.3 days | Shelf life (Pansy plants [2]; 2 mg, Matrix Yellow, drought, Table 7): 3.5 days | Shelf life (Pansy plants [2]; 2 mg, Matrix Yellow, drought, Table 10): 2.3 days | Transpiration rate (% of control) (Pansy plants [3]; 0.2 mg BA, no water, day 1 after treatment, Table 16): 101 % of control | Transpiration rate (% of control) (Pansy plants [3]; 0.2 mg BA, no water, day 2 after treatment, Table 16): 29 % of control | Transpiration rate (% of control) (Pansy plants [3]; 0.2 mg BA, no water, day 3 after treatment, Table 16): 7 % of control | Transpiration rate (% of control) (Pansy plants [3]; 0.2 mg BA, watered, day 1 after treatment, Table 16): 102 % of control | Transpiration rate (% of control) (Pansy plants [3]; 0.2 mg BA, watered, day 2 after treatment, Table 16): 98 % of control | Transpiration rate (% of control) (Pansy plants [3]; 0.2 mg BA, watered, day 3 after treatment, Table 16): 100 % of control | Transpiration rate (% of control) (Pansy plants [3]; 0.2 mg BA, watered, day 4 after treatment, Table 16): 101 % of control | Transpiration rate (% of control) (Pansy plants [3]; 0.2 mg BA, watered, day 5 after treatment, Table 16): 100 % of control | Transpiration rate (% of control) (Pansy plants [3]; 0.2 mg BA, watered, day 7 after treatment, Table 16): 99 % of control | Transpiration rate (% of control) (Pansy plants [3]; 0.2 mg BA, watered, day 10 after treatment, Table 16): 100 % of control | Transpiration rate (% of control) (Pansy plants [3]; 2 mg BA at 0 d, day 1 after ABA treatment, Table 12): 105 % of control | Transpiration rate (% of control) (Pansy plants [3]; 2 mg BA at 0 d, day 2 after ABA treatment, Table 12): 97 % of control | Transpiration rate (% of control) (Pansy plants [3]; 2 mg BA at 0 d, day 3 after ABA treatment, Table 12): 98 % of control | Transpiration rate (% of control) (Pansy plants [3]; 2 mg BA at +1 d, day 1 after ABA treatment, Table 12): 96 % of control | Transpiration rate (% of control) (Pansy plants [3]; 2 mg BA at +1 d, day 2 after ABA treatment, Table 12): 101 % of control | Transpiration rate (% of control) (Pansy plants [3]; 2 mg BA at +1 d, day 3 after ABA treatment, Table 12): 107 % of control | Transpiration rate (% of control) (Pansy plants [3]; 2 mg BA at −1 d, day 1 after ABA treatment, Table 12): 115 % of control | Transpiration rate (% of control) (Pansy plants [3]; 2 mg BA at −1 d, day 2 after ABA treatment, Table 12): 104 % of control | Transpiration rate (% of control) (Pansy plants [3]; 2 mg BA at −1 d, day 3 after ABA treatment, Table 12): 109 % of control | Transpiration rate (% of control) (Pansy plants [3]; 2 mg BA, no water, day 1 after treatment, Table 14): 108 % of control | Transpiration rate (% of control) (Pansy plants [3]; 2 mg BA, no water, day 1 after treatment, Table 16): 101 % of control | Transpiration rate (% of control) (Pansy plants [3]; 2 mg BA, no water, day 2 after treatment, Table 14): 71 % of control | Transpiration rate (% of control) (Pansy plants [3]; 2 mg BA, no water, day 2 after treatment, Table 16): 34 % of control | Transpiration rate (% of control) (Pansy plants [3]; 2 mg BA, no water, day 3 after treatment, Table 14): 54 % of control | Transpiration rate (% of control) (Pansy plants [3]; 2 mg BA, no water, day 3 after treatment, Table 16): 14 % of control | Transpiration rate (% of control) (Pansy plants [3]; 2 mg BA, no water, day 4 after treatment, Table 14): 35 % of control | Transpiration rate (% of control) (Pansy plants [3]; 2 mg BA, watered, day 1 after treatment, Table 14): 109 % of control | Transpiration rate (% of control) (Pansy plants [3]; 2 mg BA, watered, day 1 after treatment, Table 16): 99 % of control | Transpiration rate (% of control) (Pansy plants [3]; 2 mg BA, watered, day 2 after treatment, Table 14): 102 % of control | Transpiration rate (% of control) (Pansy plants [3]; 2 mg BA, watered, day 2 after treatment, Table 16): 97 % of control | Transpiration rate (% of control) (Pansy plants [3]; 2 mg BA, watered, day 3 after treatment, Table 14): 101 % of control | Transpiration rate (% of control) (Pansy plants [3]; 2 mg BA, watered, day 3 after treatment, Table 16): 98 % of control | Transpiration rate (% of control) (Pansy plants [3]; 2 mg BA, watered, day 4 after treatment, Table 14): 101 % of control | Transpiration rate (% of control) (Pansy plants [3]; 2 mg BA, watered, day 4 after treatment, Table 16): 97 % of control | Transpiration rate (% of control) (Pansy plants [3]; 2 mg BA, watered, day 5 after treatment, Table 14): 99 % of control | Transpiration rate (% of control) (Pansy plants [3]; 2 mg BA, watered, day 5 after treatment, Table 16): 101 % of control | Transpiration rate (% of control) (Pansy plants [3]; 2 mg BA, watered, day 7 after treatment, Table 14): 98 % of control | Transpiration rate (% of control) (Pansy plants [3]; 2 mg BA, watered, day 7 after treatment, Table 16): 97 % of control | Transpiration rate (% of control) (Pansy plants [3]; 2 mg BA, watered, day 10 after treatment, Table 14): 101 % of control | Transpiration rate (% of control) (Pansy plants [3]; 2 mg BA, watered, day 10 after treatment, Table 16): 102 % of control | Transpiration rate (% of control) (Pansy plants [3]; 2 mg BA, watered, day 15 after treatment, Table 14): 98 % of control
